Reference: patent US7378497B2, “Potassium channels and genes encoding these potassium channels” (NeuroSearch A/S, priority 1999, dated 2008)

What was measured:
KCNQ4 = target: T1, KCNQ4 (Homo sapiens, UniProt P56696, H455Q); assay: Two-electrode voltage clamp of KCNQ4 currents in Xenopus oocytes; type: cell-based; conditions: 200 μM Linopirdine
T1 construct: A complete cDNA was assembled and cloned into the oocyte expression vector PTLN; expressed in transfected cells; host or cells: Xenopus oocytes (cRNA injection)
T1 sequence (P56696 1-695 H455Q): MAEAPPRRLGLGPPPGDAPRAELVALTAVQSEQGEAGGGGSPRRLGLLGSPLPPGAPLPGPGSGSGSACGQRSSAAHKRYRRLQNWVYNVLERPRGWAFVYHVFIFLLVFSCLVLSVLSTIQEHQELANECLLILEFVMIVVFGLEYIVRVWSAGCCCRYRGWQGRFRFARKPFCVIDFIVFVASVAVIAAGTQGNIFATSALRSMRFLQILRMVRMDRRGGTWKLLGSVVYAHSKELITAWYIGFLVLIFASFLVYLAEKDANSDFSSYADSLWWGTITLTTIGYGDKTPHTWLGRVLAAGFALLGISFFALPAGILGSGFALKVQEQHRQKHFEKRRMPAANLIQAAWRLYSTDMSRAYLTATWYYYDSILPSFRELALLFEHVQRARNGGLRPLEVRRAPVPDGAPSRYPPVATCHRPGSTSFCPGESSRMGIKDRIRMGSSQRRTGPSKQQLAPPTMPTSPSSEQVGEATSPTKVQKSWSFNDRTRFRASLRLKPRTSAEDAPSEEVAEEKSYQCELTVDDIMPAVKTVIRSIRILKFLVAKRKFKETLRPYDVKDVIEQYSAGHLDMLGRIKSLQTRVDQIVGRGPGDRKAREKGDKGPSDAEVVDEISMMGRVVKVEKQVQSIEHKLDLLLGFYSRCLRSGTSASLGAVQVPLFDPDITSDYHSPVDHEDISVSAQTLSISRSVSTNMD
Description: (§1) KCNQ4 was expressed in Xenopus oocytes and its activity was investigated by two-electrode voltage clamping.
(§2) After linearization of the KCNQ4-containing PTLN vector with Hpal, capped cRNA was transcribed in vitro using the mMessage mMachine cRNA synthesis kit (Ambion). Usually 5-15 ng of cRNA were injected into Xenopus oocytes previously isolated by manual defolliculation and short collagenase treatment. In co-expression experiments cRNAs were injected at a 1:1 ratio. Oocytes were kept at 17° C. in modified Barth's solution (90 mM NaCl, 1 mM KCl, 0.41 mM CaCl2, 0.33 mM Ca(NO3)2, 0.82 mM MgSO4, 10 mM HEPES, 100 U penicillin-100 μg streptomycin/ml, pH 7.6).
(§3) Standard two-electrode voltage-clamp measurements were performed at room temperature 2-4 days after injection using a Turbotec 05 amplifier (npi instruments, Tamm, Germany) and pClamp 5.5 software (Axon Instruments). Currents were usually recorded in ND98 solution (see Table 2). Solutions for Na^+/K^+replacement experiments were prepared from an appropriate mixture of solution KD100 (100 mM KCl) and ND100 (100 mM NaCl) to yield the stated concentrations of Na^+and K^+. Linopirdine (RBI, Natick, Mass.) was prepared as a 100 mM stock solution in DMSO and added to a final concentration of 200 μM to ND98.

KCNQ3/KCNQ4 = target: T2, KCNQ3/KCNQ4 (Homo sapiens, UniProt O43525+P56696, H455Q); assay: Two-electrode voltage clamp of KCNQ3+KCNQ4 co-expression currents in Xenopus oocytes; type: cell-based; conditions: 200 μM Linopirdine
T2 construct: A complete cDNA was assembled and cloned into the oocyte expression vector PTLN; expressed in transfected cells; host or cells: Xenopus oocytes (cRNAs co-injected 1:1)
T2 sequence (P56696 1-695 H455Q): T1 sequence (P56696 1-695 H455Q)
T2 sequence (O43525 1-872): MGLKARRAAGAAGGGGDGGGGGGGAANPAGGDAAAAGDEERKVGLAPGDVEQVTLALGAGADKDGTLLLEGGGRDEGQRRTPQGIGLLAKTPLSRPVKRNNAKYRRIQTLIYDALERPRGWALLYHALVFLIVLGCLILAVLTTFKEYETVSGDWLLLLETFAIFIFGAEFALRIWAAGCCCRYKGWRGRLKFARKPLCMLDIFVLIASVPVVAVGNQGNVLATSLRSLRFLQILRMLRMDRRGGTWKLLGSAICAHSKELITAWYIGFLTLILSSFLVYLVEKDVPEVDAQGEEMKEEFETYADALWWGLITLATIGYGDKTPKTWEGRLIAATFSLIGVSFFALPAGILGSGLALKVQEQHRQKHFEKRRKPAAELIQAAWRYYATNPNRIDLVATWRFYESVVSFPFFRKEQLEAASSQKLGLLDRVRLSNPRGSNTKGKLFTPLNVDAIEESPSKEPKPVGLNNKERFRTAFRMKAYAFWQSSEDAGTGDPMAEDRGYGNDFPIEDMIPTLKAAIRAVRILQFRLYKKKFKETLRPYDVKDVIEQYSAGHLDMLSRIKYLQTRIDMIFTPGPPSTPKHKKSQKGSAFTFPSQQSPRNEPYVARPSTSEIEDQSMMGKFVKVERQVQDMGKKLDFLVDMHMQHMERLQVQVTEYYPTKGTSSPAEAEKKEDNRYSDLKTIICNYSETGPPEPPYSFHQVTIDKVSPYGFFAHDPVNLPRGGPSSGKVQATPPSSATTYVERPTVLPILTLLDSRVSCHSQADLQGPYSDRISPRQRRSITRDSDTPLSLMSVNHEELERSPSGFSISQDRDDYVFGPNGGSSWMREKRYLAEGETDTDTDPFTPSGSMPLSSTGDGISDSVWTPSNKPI
Description: as §1, §2, §3

KCNQ2/KCNQ3 channels = KCNQ2/KCNQ3 channels (Homo sapiens, UniProt O43525+O43526, N780T); conditions: 200 μM Linopirdine; cited from earlier work
Sequence of KCNQ2/KCNQ3 channels (O43526 1-844 isoform O43526-3 N752T, one chain of several): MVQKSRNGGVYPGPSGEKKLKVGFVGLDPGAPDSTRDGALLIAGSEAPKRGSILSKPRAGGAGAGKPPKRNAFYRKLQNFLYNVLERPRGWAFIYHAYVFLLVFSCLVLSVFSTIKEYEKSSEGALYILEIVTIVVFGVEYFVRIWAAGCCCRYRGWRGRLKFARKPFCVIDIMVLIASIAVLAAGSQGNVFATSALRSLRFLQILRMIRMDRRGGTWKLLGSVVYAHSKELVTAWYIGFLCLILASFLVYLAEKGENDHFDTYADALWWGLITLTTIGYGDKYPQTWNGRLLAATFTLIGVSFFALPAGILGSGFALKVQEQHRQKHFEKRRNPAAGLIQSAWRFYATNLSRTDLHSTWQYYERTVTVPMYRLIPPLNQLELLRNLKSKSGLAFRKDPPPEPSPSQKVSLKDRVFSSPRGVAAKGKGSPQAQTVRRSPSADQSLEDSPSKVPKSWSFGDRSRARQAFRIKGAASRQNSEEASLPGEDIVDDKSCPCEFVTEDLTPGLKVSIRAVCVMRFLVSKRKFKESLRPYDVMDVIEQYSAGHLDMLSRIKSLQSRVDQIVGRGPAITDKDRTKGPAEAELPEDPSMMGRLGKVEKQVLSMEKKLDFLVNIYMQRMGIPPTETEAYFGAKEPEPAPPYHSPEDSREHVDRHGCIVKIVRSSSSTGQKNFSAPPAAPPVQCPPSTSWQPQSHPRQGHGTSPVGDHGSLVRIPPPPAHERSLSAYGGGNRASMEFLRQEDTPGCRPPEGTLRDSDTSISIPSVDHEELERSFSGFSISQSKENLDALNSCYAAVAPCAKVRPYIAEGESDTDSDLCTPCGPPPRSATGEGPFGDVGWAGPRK

time to steady-state inhibition of KCNQ4 currents after addition (KCNQ4): ~1 min | inhibition at 200 µM (KCNQ4; currents measured at +40 mV, Xenopus oocytes, ND98, read-out: inhibition of KCNQ4 current): ~30% | time to steady-state inhibition of KCNQ3+KCNQ4 currents after addition (KCNQ3/KCNQ4): ~3 min | inhibition of KCNQ3/KCNQ4 co-expression current (KCNQ3/KCNQ4; currents measured at +40 mV, Xenopus oocytes, ND98): ≈ 75%
SMILES: O=C1N(c2ccccc2)c2ccccc2C1(Cc1ccncc1)Cc1ccncc1 [Linopirdine, 1,3-dihydro-1-phenyl-3,3-bis(4-pyridylmethyl)-2H-indol-2-one]
inhibition of KCNQ2/KCNQ3 channels (KCNQ2/KCNQ3 channels): nearly completely inhibits
